# Data as given in US11590089B2, “Beta-2 selective adrenergic receptor agonists” (The Board of Trustees of the Leland Stanford Junior …, priority 2017, dated 2023).
# How the values were obtained:
# [1] = biological target: T1, β1-AR (Homo sapiens, UniProt P08588); experiment: radioligand binding assay, β1-AR, [3H]CGP12177; settings: radioligand [3H]CGP12177; values given as a range are from screening experiments with a low number of repeats; read-out: Ki β1-AR [3H]CGP12177
# Protocol: (§1) The binding affinities of exemplary compounds of interest at β1AR and β2AR were evaluated in a binding assay.
# Target sequence in this assay (P08588 whole entry): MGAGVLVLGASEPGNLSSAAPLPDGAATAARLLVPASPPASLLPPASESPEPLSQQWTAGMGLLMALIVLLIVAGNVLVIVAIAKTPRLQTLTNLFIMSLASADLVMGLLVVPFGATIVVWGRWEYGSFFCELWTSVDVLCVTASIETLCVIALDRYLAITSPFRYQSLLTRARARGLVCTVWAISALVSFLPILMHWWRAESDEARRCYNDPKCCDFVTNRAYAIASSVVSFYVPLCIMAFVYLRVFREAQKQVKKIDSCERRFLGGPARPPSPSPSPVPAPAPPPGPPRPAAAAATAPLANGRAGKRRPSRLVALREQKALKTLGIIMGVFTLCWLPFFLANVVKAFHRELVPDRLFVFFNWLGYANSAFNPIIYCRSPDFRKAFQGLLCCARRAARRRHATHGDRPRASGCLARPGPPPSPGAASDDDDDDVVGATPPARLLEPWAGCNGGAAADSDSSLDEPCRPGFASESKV
# [2] = biological target: T2, β2-AR (Homo sapiens, UniProt P07550); experiment: radioligand binding assay, β2-AR, [3H]CGP12177; settings: radioligand [3H]CGP12177; values given as a range are from screening experiments with a low number of repeats; read-out: Ki β2-AR [3H]CGP12177
# Protocol: as §1
# Target sequence in this assay (P07550 whole entry): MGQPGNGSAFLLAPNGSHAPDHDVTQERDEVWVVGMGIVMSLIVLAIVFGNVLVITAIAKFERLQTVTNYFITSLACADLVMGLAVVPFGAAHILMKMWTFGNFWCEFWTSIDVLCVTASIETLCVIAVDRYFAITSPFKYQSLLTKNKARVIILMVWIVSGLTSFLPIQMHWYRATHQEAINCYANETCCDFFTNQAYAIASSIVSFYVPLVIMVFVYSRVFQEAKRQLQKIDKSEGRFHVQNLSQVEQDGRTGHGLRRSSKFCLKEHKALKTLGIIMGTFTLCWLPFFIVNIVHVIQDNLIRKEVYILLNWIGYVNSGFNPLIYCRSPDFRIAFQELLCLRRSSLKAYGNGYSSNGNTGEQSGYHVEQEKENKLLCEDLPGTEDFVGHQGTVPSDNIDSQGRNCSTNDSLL
# [3] = biological target: T3, •1A-AR (Homo sapiens, UniProt P35348); experiment: radioligand binding assay, α1A-AR, [3H]prazosin; settings: radioligand [3H]prazosin; values given as a range are from screening experiments with a low number of repeats; read-out: Ki •1A-AR [3H]prazosin
# T3 sequence (P35348 1-466): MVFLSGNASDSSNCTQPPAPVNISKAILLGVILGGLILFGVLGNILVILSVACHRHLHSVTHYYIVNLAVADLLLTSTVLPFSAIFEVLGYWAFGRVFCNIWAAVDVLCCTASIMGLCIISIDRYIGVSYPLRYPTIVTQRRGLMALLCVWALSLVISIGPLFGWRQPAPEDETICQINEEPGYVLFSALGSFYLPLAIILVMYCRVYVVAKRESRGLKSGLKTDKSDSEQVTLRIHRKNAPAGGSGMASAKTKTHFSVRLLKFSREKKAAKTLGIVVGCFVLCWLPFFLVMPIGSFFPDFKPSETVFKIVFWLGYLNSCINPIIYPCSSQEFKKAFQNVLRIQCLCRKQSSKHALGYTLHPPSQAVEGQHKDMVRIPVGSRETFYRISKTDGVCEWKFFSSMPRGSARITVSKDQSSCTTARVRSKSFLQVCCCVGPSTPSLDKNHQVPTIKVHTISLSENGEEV
# [4] = biological target: T4, α2A-AR (Homo sapiens, UniProt P08913); experiment: radioligand binding assay, α2A-AR, [3H]RX821002; settings: radioligand [3H]RX821002; values given as a range are from screening experiments with a low number of repeats
# T4 sequence (P08913 1-465): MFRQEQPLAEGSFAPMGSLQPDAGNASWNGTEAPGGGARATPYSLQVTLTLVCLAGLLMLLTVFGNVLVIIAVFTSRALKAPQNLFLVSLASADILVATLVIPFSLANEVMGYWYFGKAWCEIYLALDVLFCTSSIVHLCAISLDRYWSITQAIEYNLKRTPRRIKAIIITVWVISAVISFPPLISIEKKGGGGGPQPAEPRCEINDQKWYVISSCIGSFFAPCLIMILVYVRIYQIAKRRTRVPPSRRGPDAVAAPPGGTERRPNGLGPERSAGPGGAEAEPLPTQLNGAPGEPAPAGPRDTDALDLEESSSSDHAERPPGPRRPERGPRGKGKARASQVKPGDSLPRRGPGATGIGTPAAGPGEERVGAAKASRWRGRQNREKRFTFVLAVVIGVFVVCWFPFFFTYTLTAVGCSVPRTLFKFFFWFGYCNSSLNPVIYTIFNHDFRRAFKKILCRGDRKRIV
# [5] = biological target: T1, β1-AR; experiment: β-arrestin-2 recruitment assay at β1-AR; assay type: cell-based; settings: for EC50: n.d. = could not be determined because of lack of activity, ranges from screening experiments with a low number of repeats, read-out: β-arrestin-2 recruitment β1-AR EC50; for β-arrestin-2 recruitment β1-AR Emax: relative to norepinephrine
# Target sequence in this assay (P08588 whole entry): as the sequence (P08588 whole entry) above
# Target sequence in this assay (P32121 whole entry partner): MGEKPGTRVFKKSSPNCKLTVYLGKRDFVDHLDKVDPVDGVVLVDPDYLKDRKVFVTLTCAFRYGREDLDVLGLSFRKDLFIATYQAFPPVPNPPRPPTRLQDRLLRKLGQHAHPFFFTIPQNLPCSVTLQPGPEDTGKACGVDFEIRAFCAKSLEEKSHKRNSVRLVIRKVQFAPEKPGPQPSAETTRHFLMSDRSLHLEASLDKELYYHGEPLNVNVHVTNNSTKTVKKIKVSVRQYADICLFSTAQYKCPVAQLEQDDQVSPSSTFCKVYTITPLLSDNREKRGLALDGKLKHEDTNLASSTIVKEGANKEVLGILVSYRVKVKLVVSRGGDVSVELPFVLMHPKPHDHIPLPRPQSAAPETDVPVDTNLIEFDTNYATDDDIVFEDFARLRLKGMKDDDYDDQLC
# [6] = biological target: T2, β2-AR; experiment: β-arrestin-2 recruitment assay at β2-AR; assay type: cell-based; settings: for EC50: n.d. = could not be determined because of lack of activity, ranges from screening experiments with a low number of repeats, read-out: β-arrestin-2 recruitment β2-AR EC50; for β-arrestin-2 recruitment β2-AR Emax: relative to norepinephrine
# Target sequence in this assay (P07550 whole entry): as the sequence (P07550 whole entry) above
# Target sequence in this assay (P32121 whole entry partner): as the sequence (P32121 whole entry partner) above
Structure (SMILES),Ki [1] [µM],Ki [2] [nM],Ki [3] [µM],Ki [4] [µM],EC50 [5] [µM],β-arrestin-2 recruitment β1-AR Emax [5] [% norepinephrine],EC50 [6] [nM],β-arrestin-2 recruitment β2-AR Emax [6] [% norepinephrine]
"Oc1ccc2c(c1O)CC[C@@H](NC1COC1)[C@@H]2O [LM 113, (5R,6R)-6-(oxetan-3-ylamino)-5,6,7,8-tetrahydronaphthalene-1,2,5-triol]",≥ 50,600 to 1500,≥ 60,25 to 45,> 100,20,200 to 400,115
"COCC(COC)N[C@@H]1CCc2c(ccc(O)c2O)[C@H]1O [LM 114, (5R,6R)-6-((1,3-dimethoxypropan-2-yl)amino)-5,6,7,8-tetrahydronaphthalene-1,2,5-triol]",40 to 80,600 to 1500,10 to 20,6 to 12,30 to 60,35,500 to 1000,125
"CC(C)(C)CN[C@@H]1CCc2c(ccc(O)c2O)[C@H]1O [LM 117, (5R,6R)-6-(neopentylamino)-5,6,7,8-tetrahydronaphthalene-1,2,5-triol]",≥ 50,250 to 700,10 to 20,15 to 30,10 to 20,17,50 to 120,116
"C[Si](C)(C)CN[C@@H]1CCc2c(ccc(O)c2O)[C@H]1O [LM 118, (5R,6R)-6-(((trimethylsilyl)methyl)amino)-5,6,7,8-tetrahydronaphthalene-1,2,5-triol]",≥ 50,200 to 500,5 to 10,8 to 15,25 to 70,40,120 to 250,119
